Experimental data taken from patent US20250101052A1, “COMPOUND FOR EGFR KINASE INHIBITOR, COMPOSITION, AND USE THEREOF” (INNOVATION INSTITUTE FOR ARTIFICIAL INTELLIGENCE IN …, priority 2021, published 2025).

What was measured:
[1] = biological target: EGFR^L858R/T790M/C797S kinase (Homo sapiens (Human), UniProt P00533, C797S/L858R/T790M); assay: EGFR^L858R/T790M/C797S kinase inhibitory activity experiment; format: biochemical; conditions: in vitro
Description: EGFRL^858R/T790M/C797S kinase inhibitory activity experiment: The compounds of the present invention have excellent in-vitro inhibitory activity against EGFR^L858R/T790M/C797S kinase
• Centrifuge (manufacturer: Eppendorf, model: 5430) • Microplate reader (manufacturer: Perkin Elmer, model: Caliper EZ ReaderII) • Echo 550 (manufacturer: Labcyte, model: Echo 550) • Experimental Method • Compound preparation: • A 10 mM storage solution was prepared.
(1) 1×Kinase buffer was prepared.
(2) Preparation of concentration gradient of compound: The tested compound has a test concentration starting from 1 μM, diluted 10 times, with 10 concentrations, and subjected to single-well or multi-well detection. The compound was diluted to a 100% DMSO solution with a final concentration of 100 times in a 384 source plate. […] of the compound at a final concentration of 100 times was transferred to the target plate 384-well-plate using the pipette Echo 550.
(3) A kinase solution with a final concentration of 2.5 times was prepared using 1× Kinase buffer.
(4) 10 μL of the kinase solution with the final concentration of 2.5 times was added to a compound well and a positive control well, respectively; 10 μL of 1×Kinase buffer was added to a negative control well.
(5) Centrifugation was conducted at 1000 rpm for 30 seconds, and the reaction plate was shaken and mixed well, and incubated at a room temperature for 10 minutes.
(6) A mixed solution of ATP with a final concentration of 5/3 times and Kinase substrate 22 was prepared using 1×Kinase buffer.
(7) A mixed solution of 15 μL of ATP with a final concentration of 5/3 times and a substrate was added for initial reaction.
(8) The 384-well-plate was centrifuged at 1000 rpm for 30 seconds, shaken and mixed well, and incubated at a room temperature for 60 minutes.
(9) 30 μL of a termination detection solution was added to stop the kinase reaction. Centrifugation was conducted at 1000 rpm for 30 seconds. Shaking and mixing well were conducted.
(10) The conversion rate was read using Caliper EZ Reader.
where Conversion %_sample is the conversion rate reading of the sample; Conversion %_min: the average value of negative control wells, representing the conversion rate reading of wells without enzyme activity; Conversion %_max: the average value of positive control wells, representing the conversion rate reading of wells without compound inhibition; % Inhibition represents the inhibition rate.
Fitting of Dose-Response Curve
Using the log value of concentration as the X-axis and the percentage inhibition rate as the Y-axis, the dose-response curve was fitted using the log(inhibitor) vs. response —Variable slope of the analysis software GraphPad Prism 5 to obtain the IC50 value of each compound on enzyme activity.

[2] = tested on: BaF3-EGFR^L858R/T790M/C797S cells; assay: BaF3 cell proliferation inhibition experiment (CCK-8); format: cell-based; conditions: Ba/F3 EGFR-L858R, 72 hours
Excerpt: BaF3 cell proliferation inhibition experiment: The compounds of the present invention have excellent inhibitory activity against the proliferation of BaF3-EGFR^L858R/T790M/C797S cells
(§1) A. Cell line: BaF3 cells with stable overexpression of wild-type genes are named BaF3-EGFR^WT, and BaF3 cells with stable overexpression of EGFR^L858R/T790M/C797S EGFR^del19/T790M/C797S EGFR^L858R/C797S and EGFR^del19/C797S mutant genes are named BaF3-EGFR^L858R/T790M/C797S BaF3-EGFR^del19/T790M/C797S BaF3-EGFR^L858R/C797S and BaF3-EGFR^del19/C797S cells, respectively. Mediums:
(§2) a) The medium was preheated in a 37° C. water bath.
(§3) b) The cryopreservation tube was taken from the liquid nitrogen tank, quickly placed in a 37° C. water bath, and melted completely within 1 minute.
(§4) c) The cell suspension was transferred to a 15 mL centrifuge tube containing a 10 mL medium and centrifuged at 1000 rpm for 4 minutes.
(§5) d) The supernatant was discarded, the cells were resuspended in a 1 mL medium and transferred to a […] culture dish containing a 10 mL medium, 20% serum and 50 ng/mL EGF were administered to the first-generation medium, and culture was conducted in a 37° C. and 5% CO2 incubator.
(§6) b) The cells in the culture dish were blown evenly with a 5 mL pipette, and 500 μL of the cells were pipetted out to be inoculated into a new […] culture dish and cultured in a 37° C. and 5% CO2 incubator.
(§7) a) The compound to be tested (10 mM stock solution) was diluted with 100% DMSO to 1 mM, and diluted with a culture solution in a 24-well plate to prepare of a working solution of 2 μM concentration.
(§8) b) The 2 μM working solution was diluted with a triple dilution method to obtain working solutions with approximate concentrations of 2 μM, 600 nM, 200 nM, 60 nM, and 20 nM.
(§9) a) The cells at the logarithmic growth phase were centrifuged at 1000 rpm for 4 minutes, resuspended with a medium (containing 10% serum and 50 ng/mL EGF), and counted.
(§10) b) The cells were inoculated into a 96-well plate with a cell density of 4000 cells/well, and placed in a 37° C. and 5% CO2 incubator for culture for 12 hours.
(§11) a) The prepared compound was added to a 96-well plate, with 100 μL per well. The final concentrations were 1 μM, 300 nM, 100 nM, 30 nM, 10 nM, and 0 nM, and the final concentration of DMSO was 0.2%. A medium served as a blank control.
(§12) b) The cells were placed in 37° C. and 5% CO2 incubator for culture for 72 hours.
(§13) (5) Cell Viability Testing
(§14) a) The 96-well cell culture plate was taken out, and 20 μL of a CCK-8 reagent (Cell Counting Kit-8, Topscience, Catalog No. C0005) was added in the dark.
(§15) b) Mixing well was conducted on a horizontal shaking table at a room temperature at 100 rpm for 5 minutes.
(§16) c) The culture plate was placed in a 37° C. constant-temperature incubator for incubation.
d) Starting from the addition of the CCK-8, the absorbance at 450 nm was read using the TECAN microplate reader at 1 hour, 2 hours, and 3 hours, respectively.
(§17) The data was analyzed using GraphPad Prism 8.0 software to obtain a fitted curve of activity of the compounds. The IC50 of the compounds was fitted from nonlinear regression equation.

[3] = tested on: A431 cells; assay: A431 cell proliferation inhibition (SRB); format: cell-based; conditions: Homo sapiens, A-431, wild-type EGFR, 72 hours
Description: A431 cell proliferation inhibition: The compounds of the present invention have good selectivity to wild-type EGFR
as §2, §3, §4, §5, §6, §7, §8, §9, §10, §11, §12, §13
a) The cell supernatant was discarded, rinsed once with 1×PBS, and fixed with 10% trichloroacetic acid for 1 hour. The trichloroacetic acid was discarded, excess trichloroacetic acid was washed off with tap water, and the 96-well plate was dried in a 60° C. oven.
b) 70 μL of an SRB stain was added to each well of the dry 96-well plate for staining at a room temperature for 30 minutes. Excess SRB stain was washed off with 1% glacial acetic acid, and the 96-well plate was dried in a 60° C. oven.
c) SRB was dissolved with 100 μL of 10 mM Tris-base solution. The absorbance was detected at 540 nm ultraviolet absorption using the microplate reader. The data was analyzed.
as §17

[4] = Detection of oral plasma exposure in rats; format: in vivo; conditions: rat, SD rats, p.o. 10 mg/kg
Description: Detection of oral plasma exposure in rats: The compounds of the present invention have good oral in-vivo exposure in rats
After a single dose of 10 mg/kg oral administration of the compound to be tested in SD rats, blood samples were collected at different time points.
Standard curve and quality control sample preparation processing: The mixed reserve solution of the compound to be tested was taken and diluted with 50% methanol water into standard working solutions containing respective compounds with concentrations of 20, 40, 100, 200, 400, 1000, 2000, 4000, 10000, and 20000 ng/mL, as well as 60, 600, and 16000 ng/mL quality control working solutions. […] of a blank matrix was taken. […] of the standard curve working solutions and the quality control working solutions were added to prepare standard curves containing respective compounds with concentrations of 1.00, 2.00, 5.00, 10.00, 20.00, 50.00, 100.00, 200.00, 500.00, and 1000.00 ng/mL, as well as quality control samples with concentrations of 3.00, 30.00, and 800.00 ng/mL, respectively. 400 μL of acetonitrile (containing internal standard Verpmil of 2 ng/mL) was added. After vortex oscillation at 700 rcf for 10 minutes, centrifugation was conducted at 3300 rcf at 4° C. for 10 minutes. The supernatant was taken for LC-MS/MS analysis.
Unknown sample preparation processing: 50 μL of the sample to be tested was taken. 400 μL of acetonitrile (containing internal standard Verpmil of 2 ng/mL) was added. After vortex oscillation at 700 rcf for 10 minutes, centrifugation was conducted at 3300 rcf and 4° C. for 10 minutes. The supernatant was taken for LC-MS/MS analysis.

[5] = tested on: BaF3-EGFR^WT cells; assay: BaF3 cell proliferation inhibition experiment (CCK-8); format: cell-based; conditions: Mus musculus, BaF3; cell proliferation, 72 hours; read-out: BaF3-EGFR^WT (IC50 nM)
Description: as §1, §2, §3, §4, §5, §6, §7, §8, §9, §10, §11, §12, §13, §14, §15, §16, §17

[6] = tested on: BaF3-EGFR^del19/T790M/C797S cells; assay: as above; format: cell-based; conditions: Ba/F3 EGFR-Del19/T790M/C797S; cell proliferation, 72 hours; read-out: BaF3-EGFR^del19 /T790M/C797S (IC50 nM)
Description: as §1, §2, §3, §4, §5, §6, §7, §8, §9, §10, §11, §12, §13, §14, §15, §16, §17

Sequence of EGFR^L858R/T790M/C797S kinase (P00533 25-1210 T790M/C797S/L858R): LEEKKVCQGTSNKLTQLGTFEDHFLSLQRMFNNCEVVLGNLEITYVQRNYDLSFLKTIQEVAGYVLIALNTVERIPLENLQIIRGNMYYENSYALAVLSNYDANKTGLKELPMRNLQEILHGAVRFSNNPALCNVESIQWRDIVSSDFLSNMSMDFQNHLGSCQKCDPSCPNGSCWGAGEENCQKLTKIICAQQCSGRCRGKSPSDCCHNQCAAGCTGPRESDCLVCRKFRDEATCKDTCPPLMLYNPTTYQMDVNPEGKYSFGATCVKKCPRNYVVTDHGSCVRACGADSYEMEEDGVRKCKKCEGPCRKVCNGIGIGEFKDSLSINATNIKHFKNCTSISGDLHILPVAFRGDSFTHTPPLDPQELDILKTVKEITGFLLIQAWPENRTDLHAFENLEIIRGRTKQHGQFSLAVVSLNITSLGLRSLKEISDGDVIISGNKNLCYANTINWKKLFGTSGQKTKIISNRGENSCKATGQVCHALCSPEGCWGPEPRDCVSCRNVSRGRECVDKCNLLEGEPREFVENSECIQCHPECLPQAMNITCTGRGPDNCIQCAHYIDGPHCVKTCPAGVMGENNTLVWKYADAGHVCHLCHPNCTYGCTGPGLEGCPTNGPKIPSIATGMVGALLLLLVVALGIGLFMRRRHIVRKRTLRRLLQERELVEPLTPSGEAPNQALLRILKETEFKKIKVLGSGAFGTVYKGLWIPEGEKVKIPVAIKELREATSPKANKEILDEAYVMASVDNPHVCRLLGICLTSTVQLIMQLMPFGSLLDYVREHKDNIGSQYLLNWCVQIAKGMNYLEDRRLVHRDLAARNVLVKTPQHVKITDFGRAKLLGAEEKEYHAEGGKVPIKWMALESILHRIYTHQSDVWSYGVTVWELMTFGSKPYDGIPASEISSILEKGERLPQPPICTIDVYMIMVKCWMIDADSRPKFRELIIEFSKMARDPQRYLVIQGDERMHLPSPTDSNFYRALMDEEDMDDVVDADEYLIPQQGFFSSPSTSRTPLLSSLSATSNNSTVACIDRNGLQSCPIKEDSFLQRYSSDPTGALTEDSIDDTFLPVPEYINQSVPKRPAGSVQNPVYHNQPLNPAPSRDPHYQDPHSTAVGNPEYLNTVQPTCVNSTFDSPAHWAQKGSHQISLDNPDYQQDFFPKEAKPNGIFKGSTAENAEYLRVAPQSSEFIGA

Structure (SMILES) | IC50 [1] [nM] | IC50 [2] [nM] | IC50 [3] [nM] | Cmax [4] [ng/mL] | IC50 [5] [nM] | IC50 [6] [nM]
COc1cc(N2CCC(N3CCN(C)CC3)CC2)c(C)cc1Nc1ncc(Cl)c(Nc2cc(C)c(C)cc2P(C)(C)=O)n1 [Compound 12, (2-((5-Chloro-2-((2-methoxy-5-methyl-4-(4-(4-methylpiperazin-1-yl)piperidin-1-yl)phenyl)amino)pyrimidin-4-yl)amino)-4,5-dimethylphenyl)dimethylphosphine oxide] | 5.3 | 44.4 | > 500 | 1190 | – | –
CCc1cc(Nc2ncc(Cl)c(Nc3cc(C)c(C)cc3P(C)(C)=O)n2)c(OC)cc1N1CCC(N2C[C@@H](C)N(C)[C@@H](C)C2)CC1 [Compound 50, (2-((5-chloro-2-((5-ethyl-2-methoxy-4-(4-((3S,5R)-3,4,5-trimethylpiperazin-1-yl)piperidin-1-yl)phenyl)amino)pyrimidin-4-yl)amino)-4,5-dimethylphenyl)dimethylphosphine oxide] | 0.0707 | – | – | – | 942 | 186
COc1cc(N2CCC3(CC2)CC(N(C)C)C3)c(F)cc1Nc1ncc(Cl)c(Nc2cc(C)c(C)cc2P(C)(C)=O)n1 [Compound 16, (2-((5-chloro-2-((4-(2-(dimethylamino)-7-azaspiro[3.5]nonan-7-yl)-5-fluoro-2-methoxypheny 1)amino)pyrimidin-4-yl)amino)-4,5-dimethylphenyl)dimethylphosphine oxide] | 12 | 35.7 | > 500 | – | – | –
CCc1cc(Nc2ncc(Cl)c(Nc3ccccc3P(C)(C)=O)n2)c(OC)cc1N1CC2(CCN(C)CC2)C1 [Comparative Compound B, (2-((5-Chloro-2-((5-ethyl-2-methoxy-4-(7-methyl-2,7-diazaspiro[3.5]nonan-2-yl)phenyl)amino)pyrimidin-4-yl)amino)phenyl)dimethylphosphine oxide, reference compound] | 2.3 | 251 | 280 | – | – | –
COc1cc(N2CCC3(CC2)CC(N(C)C)C3)c(C)cc1Nc1ncc(Cl)c(Nc2ccc(C)c(C)c2P(C)(C)=O)n1 [Compound 23, (6-((5-chloro-2-((4-(2-(dimethylamino)-7-azaspiro[3.5]nonan-7-yl)-2-methoxy-5-methylphenyl)amino)pyrimidin-4-yl)amino)-2,3-dimethylphenyl)dimethylphosphine oxide] | 0.78 | 39 | > 500 | – | – | –
CCc1cc(Nc2ncc(Cl)c(Nc3cccc(Cl)c3P(C)(C)=O)n2)c(OC)cc1N1CCC2(CC1)CC(N(C)C)C2 [Compound 19, (2-chloro-6-((5-chloro-2-((4-(2-(dimethylamino)-7-azaspiro[3.5]nonan-7-yl)-5-ethyl-2-methoxyphenyl)amino)pyrimidin-4-yl)amino)phenyl)dimethylphosphine oxide] | 0.86 | 47.8 | > 500 | – | – | –
COc1cc(N2CCC3(CC2)CC(N(C)C)C3)c(Cl)cc1Nc1ncc(Cl)c(Nc2cc(C)c(C)cc2P(C)(C)=O)n1 [Compound 13, (2-((5-Chloro-2-((5-chloro-4-(2-(dimethylamino)-7-azaspiro[3.5]nonan-7-yl)-2-methoxyphenyl)amino)pyrimidin-4-yl)amino)-4,5-dimethylphenyl)dimethylphosphine oxide] | 0.89 | 38.1 | > 500 | – | – | –
CCc1cc(Nc2ncc(Cl)c(Nc3cc(Cl)c(Cl)cc3P(C)(C)=O)n2)c(OC)cc1N1CCC2(CC1)CC(N(C)C)C2 [Compound 7, (4,5-Dichloro-2-((5-chloro-2-((4-(2-(dimethylamino)-7-azaspiro[3. 5]nonan-7-yl)-5-ethyl-2-methoxyphenyl)amino)pyrimidin-4-yl)amino)phenyl)dimethylphosphine oxide] | 0.98 | 49.9 | > 500 | – | – | –
